The values below come from patent US12059467B2, “Low-toxicity and high-efficiency orthoester mixture pharmaceutical adjuvant, preparation method thereof, and topical sustained release drug delivery formulation including same” (ANHUI UNIVERSITY, priority 2022, dated 2024).

Series [1] deals with Hypertension model rats. Nature of the series: Antihypertensive effect in hypertension model rats. As to conditions: 40 mg/kg based on an irbesartan content; irbesartan orally, E-1′-Irbe subcutaneous injection.
Description: Hypertension model rats were treated with irbesartan and the prepared irbesartan injection (E-1′-Irbe) at a dose of 40 mg/kg based on an irbesartan content, where the irbesartan was administered orally and the irbesartan injection (E-1′-Irbe) was administered through subcutaneous injection. A drug concentration in blood and a blood pressure level were detected at a preset time point.
Series [2] can be described thus: Alcohol metabolite biodistribution test. It counts as in vivo, mice. Conditions: subcutaneous, 15,000 mg/kg; urine, blood, heart, liver, spleen, lung, kidney; gas chromatograph. As to the method: Preparation of standard solutions: an appropriate amount of methanol or ethanol was accurately weighed and prepared with water into a 10.0 mg/mL standard solution as a stock solution, and the stock solution was further diluted into aqueous solutions with concentrations of 0.10 mg/mL, 0.20 mg/mL, 0.50 mg/mL, 0.80 mg/mL, 1.00 mg/mL, 2.00 mg/mL, and 3.00 mg/mL, respectively. Preparation of an internal standard solution: an appropriate amount of tert-butyl alcohol (TBA) was accurately weighed and prepared with water into a 5.0 mg/mL TBA stock solution, the TBA stock solution was diluted with water to obtain a 40.0 μg/mL TBA working solution, and the TBA working solution was refrigerated and stored in a closed manner.
Different formulations each were subcutaneously injected into different mice at a dose of 15,000 mg/kg, and then the urine, blood, heart, liver, spleen, lung, and kidney were collected from the mice at different time points. 0.10 mL of each of the standard solutions, urine, blood, and tissue extracts was taken and mixed with 0.50 mL of a 40.0 μg/mL TBA working solution, and a resulting mixture was tested by a gas chromatograph. A standard curve with a linear regression coefficient of 0.999 or higher was plotted with results of the standard solutions, and then a methanol or ethanol content in each sample was calculated. […]

The subject of series [3] is mice. Nature of the series: Acute toxicity test (LD50, MTD). It counts as in vivo. As for the experimental part:
With OE-2 in the patent application 202111500943.7 as a reference formulation, the OE-1′ obtained in Example 1 was subjected to an acute toxicity test, and experimental steps were as follows:
OE-2 and 0E-1′ each were administered to different mice at a time through intragastric administration, subcutaneous injection, and intraperitoneal injection with a dose gradient from 1 mg/kg to 50,000 mg/kg; poisoning characteristics of mice within 24 h were observed, and a mortality rate was counted; and an accurate LD50 value was calculated according to the probability unit method and the karber's method, and finally experimental groups were compared in terms of acute toxicity.
Note: The larger the LD50 value in the experimental group, the smaller the acute toxicity.

The subject of series [4] is red blood cell (RBC) suspension. Nature of the series: Hemolysis test. It counts as cell-based. Conditions: 3 mg/mL to 15 mg/mL, 37° C., 3 h; hemolysis rate lower than 5% means no hemolytic effect. As to the method: Preparation of test samples: negative control: 2.5 mL of a red blood cell (RBC) suspension+2.5 mL of a 0.9% sodium chloride injection; positive control: 2.5 mL of an RBC suspension+2.5 mL of distilled water; and experimental group: 2.5 mL of an RBC suspension+2.2 mL of a 0.9% sodium chloride injection+0.3 mL of a formulation to be tested (3 mg/mL to 15 mg/mL).
Each sample was incubated in a 37° C. thermostatic water bath for 3 h and then centrifuged (3,000 r/min, 5 min) to obtain a supernatant, the supernatant was allowed to stand at room temperature for 30 min, and the absorbance of the sample was determined at 540 nm by a microplate reader; and the influence of plasma contents was eliminated with the absorbance of the negative control group, and then a hemolysis rate (%) of the experimental group could be calculated according to the following formula: HL%=At/Apc×100%, where At represents an absorbance value of a test sample and APC represents an absorbance value of the positive control. When a hemolysis rate is lower than 5%, it means that the formulation of the experimental group has no hemolytic effect at a corresponding concentration.

For series [5], the system named is mice. Nature of the series: Cardiovascular system-associated safety evaluation. Conditions: subcutaneous, 15,000 mg/kg, measured daily in the following week. It counts as in vivo. As to the method:
Different formulations each were subcutaneously injected into different mice at a dose of 15,000 mg/kg, and a blood pressure and a heart rate of mice in each group were measured daily by […] in the following week.

The subject of series [6] is mice. Nature of the series: Chronic toxicity test. As to conditions: subcutaneous, 15,000 mg/kg, 6 months. It counts as in vivo. As for the experimental part: Different formulations each were subcutaneously injected into different mice at a dose of 15,000 mg/kg, and the continuous behavioral observation, routine blood test, biochemical index test, and organ weight measurement were conducted for 6 months.

The test system of series [7] is mice. Nature of the series: Respiratory system and blood oxygen saturation tests. As to conditions: subcutaneous, 15,000 mg/kg, measured daily in the following week. It counts as in vivo. As for the experimental part: Different formulations each were subcutaneously injected into different mice at a dose of 15,000 mg/kg, and a breathing rate and a blood oxygen saturation of mice in each group were measured daily by a small animal non-invasive pulse oximeter in the following week.

Series [8] has as its system pain model rats. Nature of the series: Analgesic effect in pain model rats. It counts as in vivo. As to conditions: subcutaneous, 200 mg/kg based on a mepivacaine content. As to the method: Mepivacaine and the prepared mepivacaine injection (E-A′-Mep) each were subcutaneously injected into different pain model rats at a dose of 200 mg/kg based on a mepivacaine content. A time required for a rat to have a normal response to deep pain and electric stimulation and a time required for a rat to return from a motor weakness state to a normal state were then recorded; and when half of rats returned to a normal state, the test was stopped.

Series [9] deals with mice. Nature of the series: Antibody-producing effect (IgG) in mice. It counts as in vivo. Conditions: subcutaneous, 50 mg/kg based on an ovalbumin content on day 1 and day 15. As to the method: Ovalbumin and the prepared ovalbumin injection (E-C′-Ova) were subcutaneously injected into different mice at a dose of 50 mg/kg based on an ovalbumin content on day 1 and day 15, and an IgG concentration was detected.

Entries after “also recorded” stand apart in the source; their conditions may differ.

Take `CCCCC1=NC2(CCCC2)C(=O)N1Cc1ccc(-c2ccccc2-c2nnn[nH]2)cc1` [irbesartan]: in series [1], the blood pressure level entry is listed as “can reduce a blood pressure; also recorded: rebounds rapidly” and the “drug concentration in blood” value is “decreases rapidly”.
On to `CCOC1OCC(COCC2COC(OCC)O2)O1` (centres unmarked) [OE-1′, 4,4′-(Oxybis(Methylene))Bis(2-Ethoxy-1,3-Dioxolane)], for which the “methanol or ethanol content in each sample” value in series [2] is reported as “a trace amount of ethanol is detected in each sample”. Further, the “tolerance dose of mice (MTD)” value in [3] (mouse, in vivo) was “higher than a tolerance dose of mice for OE-2”. In addition, the LD50 value entry in series [3] (single administration, intragastric, subcutaneous, intraperitoneal, mortality within 24 h) was “significantly higher than an LD50 value of OE-2”. Further, the “hemolytic effect (hemolysis rate)” value in series [4] was “does not lead to a hemolytic effect”. Further, the “cardiovascular function (blood pressure and heart rate)” value in series [5] was “at a normal level”. In addition, in series [6], the organ mass result is recorded as “significantly higher than an organ mass of mice in the OE-2 group”. Also, in series [7], the blood oxygen saturation result is reported as “at normal levels” and the breathing rate entry was “at normal levels”.
In the case of `Cc1cccc(C)c1NC(=O)C1CCCCN1C` (centres unmarked) [Normal saline (NS) + mepivacaine, mepivacaine], in series [8], the “Time required for half of rats to have a normal response, Deep pain” value is recorded as 60 min; the “Time required for half of rats to have a normal response, Electric stimulation” value stood at 60 min; the “Time required for half of rats to have a normal response, Motor weakness” value is 60 min.

B1: ovalbumin (protein, UniProt P01012 2-386, looked up)
Ovalbumin: GSIGAASMEFCFDVFKELKVHHANENIFYCPIAIMSALAMVYLGAKDSTRTQINKVVRFDKLPGFGDSIEAQCGTSVNVHSSLRDILNQITKPNDVYSFSLASRLYAEERYPILPEYLQCVKELYRGGLEPINFQTAADQARELINSWVESQTNGIIRNVLQPSSVDSQTAMVLVNAIVFKGLWEKAFKDEDTQAMPFRVTEQESKPVQMMYQIGLFRVASMASEKMKILELPFASGTMSMLVLLPDEVSGLEQLESIINFEKLTEWTSSNVMEERKIKVYLPRMKMEEKYNLTSVLMAMGITDVFSSSANLSGISSAESLKISQAVHAAHAEINEAGREVVGSAEAGVDAASVSEEFRADHPFLFCIKHIATNAVLFFGRCVSP
notes: ovalbumin alone, injected subcutaneously as comparator
With B1, the IgG concentration entry in [9] is reported as “decreases rapidly”.
